Literature values, collected in PMC5523132 (ACS chemical biology, 2016).

Settings: cited from earlier work

O=C([O-])CN1CCN(CC(=O)[O-])CCN(CC(=O)[O-])CCN(CC(=O)[O-])CC1.[Gd+3] [[Gd•DOTA], reference compound]
half-life (adult rats): roughly 19 minutes

RSA: rat serum albumin
clearance half-life (in the rat): approx. 48 hours
